{"source": "paper PMC12845078", "about": "(Pharmaceuticals, 2025)", "key": {"[1]": {"assay": "Pharmacokinetics of MT, 6-HMT and CBD in SD rats (i.v. and oral)", "conditions": "rats", "protocol": "The drugs were dissolved in the same manner as described previously, with an administration volume of 5 mL/kg for all groups. Blood samples were collected at the time points of pre-administration and 0.033 (only for the intravenous administration group), 0.083, 0.25, 0.5, 0.75, 1, 1.5, 2, 4, 6, 8, and 12 h post-administration.\n(§1) The column temperature was set at 40 °C."}, "[2]": {"assay": "Pharmacokinetics of MT and CBD in rats after pre-administration of ABT", "conditions": "both groups after ABT co-administration, all sampling time points; below lower limit of quantification", "experimental": "Twelve SD rats were randomly divided into two groups. Both groups were first given an intragastric administration of 1-aminobenzotriazole (ABT) at a dose of 200 mg/kg. […] The administration volume for all groups was 5 mL/kg. […] Approximately 50 μL of venous blood were collected into heparin sodium anticoagulant tubes and placed on ice. The sample processing and storage methods were the same as described previously.\nSubsequently, the resultant mixture was vortexed for 1 minute and centrifuged at 4 °C for 10 min at 18,800× g. […] The lowest limit of quantification (LLOQ) was established at 2 ng/mL.\nKromasil 100-5-C8 (2.1 × 50 mm) was selected for the separation of samples. The mobile phase consisted of solvent A (water with 0.1% formic acid and 5 mM ammonium acetate) and solvent B (methanol with 0.1% formic acid). […] The column temperature was set at 40 °C. The two eluents were 0.1% formic acid and 5 mM ammonium acetate in water (A) and 0.1% formic acid in methanol (B). […] The main mass spectrometry detection parameters were: dry gas 10 L/min, heated gas 10 L/min, collision gas 270 kPa, ion source temperature 300 °C, desolvation temperature 250 °C, and heating module temperature 400 °C.\nPharmacokinetic parameters: GraphPad Prism 10.1 software was utilized to draw the curves. Noncompartmental analysis was selected to calculate the major PK parameters, including clearance (CL), volume (V), half-life (t1/2), peak concentration (Cmax), and area under the curve (AUC), using WinNonlin 8.1."}, "[3]": {"assay": "Pharmacokinetics of MT, 6-HMT and CBD in beagles after oral administration", "conditions": "beagles, p.o.", "protocol": "Twelve male healthy adult beagles (weighing 10 ± 2 kg) were randomly divided into two groups. […] The drugs were dissolved in a physiological saline solution containing 5% castor oil, with an administration volume of 2 mL/kg. Blood samples were collected at the time points of pre-administration and 0.083, 0.25, 0.5, 0.75, 1, 1.5, 2, 4, 6, 8, and 12 h post-administration.\nas §1"}}, "note": "Marks after values point to notes of the source that are not given here."}
{"smiles": "COc1cc2c(CCNC(C)=O)c[nH]c2cc1O", "note": "[6-HMT, 6-Hydroxymelatonin]", "values": [{"measurement": "AUC(0–t)", "setting": "[1]; i.v., MT + CBD (1 + 1) mg/kg", "value": "33.63 (5.10) h × ng/mL"}, {"measurement": "MRT(0–t)", "setting": "[1]; i.v., MT + CBD (1 + 1) mg/kg", "value": "0.38 (0.06) h"}, {"measurement": "t1/2", "setting": "[1]; i.v., MT + CBD (1 + 1) mg/kg", "value": "0.28 (0.04) h"}, {"measurement": "AUC(0–1h)", "setting": "[1]; p.o., MT + CBD (5 + 5) mg/kg", "value": "77.02 (26.81) h × ng/mL"}, {"measurement": "AUC(0–t)", "setting": "[1]; p.o., MT + CBD (5 + 5) mg/kg", "value": "110.2 (39.21) h × ng/mL"}, {"measurement": "Cmax", "setting": "[1]; p.o., MT + CBD (5 + 5) mg/kg", "value": "125.1 (33.41) ng/mL"}, {"measurement": "MRT(0–t)", "setting": "[1]; p.o., MT + CBD (5 + 5) mg/kg", "value": "0.88 (0.11) h"}, {"measurement": "Tmax", "setting": "[1]; p.o., MT + CBD (5 + 5) mg/kg", "value": "0.33 (0.13) h"}, {"measurement": "t1/2", "setting": "[1]; p.o., MT + CBD (5 + 5) mg/kg", "value": "1.72 (1.48) h"}, {"measurement": "AUC(0–1h)", "setting": "[1]; p.o., MT + CBD (5 + 20) mg/kg", "value": "48.98 (8.27) ** h × ng/mL"}, {"measurement": "AUC(0–t)", "setting": "[1]; p.o., MT + CBD (5 + 20) mg/kg", "value": "123.2 (15.77) h × ng/mL"}, {"measurement": "Cmax", "setting": "[1]; p.o., MT + CBD (5 + 20) mg/kg", "value": "64.17 (10.40) ** ng/mL"}, {"measurement": "MRT(0–t)", "setting": "[1]; p.o., MT + CBD (5 + 20) mg/kg", "value": "2.37 (0.38) ** h"}, {"measurement": "Tmax", "setting": "[1]; p.o., MT + CBD (5 + 20) mg/kg", "value": "0.33 (0.20) h"}, {"measurement": "t1/2", "setting": "[1]; p.o., MT + CBD (5 + 20) mg/kg", "value": "3.41 (1.90) h"}, {"measurement": "AUC(0–1h)", "setting": "[1]; p.o., MT + Vehicle 5 mg/kg", "value": "90.04 (26.46) h × ng/mL"}, {"measurement": "AUC(0–t)", "setting": "[1]; p.o., MT + Vehicle 5 mg/kg", "value": "125.2 (21.64) h × ng/mL"}, {"measurement": "Cmax", "setting": "[1]; p.o., MT + Vehicle 5 mg/kg", "value": "145.6 (40.82) ng/mL"}, {"measurement": "MRT(0–t)", "setting": "[1]; p.o., MT + Vehicle 5 mg/kg", "value": "1.41 (0.59) h"}, {"measurement": "Tmax", "setting": "[1]; p.o., MT + Vehicle 5 mg/kg", "value": "0.25 (0) h"}, {"measurement": "t1/2", "setting": "[1]; p.o., MT + Vehicle 5 mg/kg", "value": "1.56 (0.90) h"}, {"measurement": "plasma concentration", "setting": "[2]", "value": "< 2", "unit": "ng/mL"}, {"measurement": "AUC(0–t)", "setting": "[3]; MT + CBD (3 + 3) mg/kg", "value": "192.4 (72.83) h × ng/mL"}, {"measurement": "AUC(0–∞)", "setting": "[3]; MT + CBD (3 + 3) mg/kg", "value": "245.7 (69.0) h × ng/mL"}, {"measurement": "Cmax", "setting": "[3]; MT + CBD (3 + 3) mg/kg", "value": "62.9 (18.18) ng/mL"}, {"measurement": "MRT(0–t)", "setting": "[3]; MT + CBD (3 + 3) mg/kg", "value": "2.94 (0.83) h"}, {"measurement": "Tmax", "setting": "[3]; MT + CBD (3 + 3) mg/kg", "value": "0.58 (0.20) h"}, {"measurement": "t1/2", "setting": "[3]; MT + CBD (3 + 3) mg/kg", "value": "4.11 (1.69) h"}, {"measurement": "ratio of AUC(0–t),6-HMT to AUC(0–t),MT with CBD, as percent of MT alone", "setting": "[3]; MT + CBD (3 + 3) mg/kg vs MT 3 mg/kg", "value": 26, "unit": "%"}, {"measurement": "AUC(0–t)", "setting": "[3]; MT + Vehicle 3 mg/kg", "value": "179.7 (36.31) h × ng/mL"}, {"measurement": "AUC(0–∞)", "setting": "[3]; MT + Vehicle 3 mg/kg", "value": "202.1 (46.02) h × ng/mL"}, {"measurement": "Cmax", "setting": "[3]; MT + Vehicle 3 mg/kg", "value": "74.80 (10.94) ng/mL"}, {"measurement": "MRT(0–t)", "setting": "[3]; MT + Vehicle 3 mg/kg", "value": "3.60 (0.81) h"}, {"measurement": "Tmax", "setting": "[3]; MT + Vehicle 3 mg/kg", "value": "0.29 (0.10) h"}, {"measurement": "t1/2", "setting": "[3]; MT + Vehicle 3 mg/kg", "value": "3.33 (1.11) h"}]}
